Structures can show the parent of a compound that is named as a salt.
Molecular target: IRAK4 kinase (Homo sapiens (Human), UniProt Q9NWZ3)
Test: IRAK4 Kinase Inhibition Assay (Cisbio HTRF KinEASE-STK S1 kit)
Format: biochemical
Conditions: IRAK4 kinase protein 10 nM, ATP 200 μM, STK Substrate 1-biotin 1 μM, 37° C. 2 h, read-out: IC50 (nM), IRAK4 kinase inhibitory activity
Description: Test Example 1. IRAK4 Kinase Inhibition Assay
In this assay, Cisbio HTRF KinEASE-STK SI kit (62S 1 PEB) was used, in which assay/detection buffer, STK Substrate 1-biotin, Streptavidin-XL665, STK Antibody-Cryptate were contained.
After adding compound/DMSO to a 384-well plate (PerkinElmer 6008280) using Echo 665, 5 μL of 2-fold reaction concentration of IRAK4 kinase protein (final concentration: 10 nM) dissolved with assay buffer [1 volume of 5× kinase buffer+20 mM magnesium chloride (Sigma) solution+1 mM DTT (Alfa Aesar) solution+4 volumes deionized water] was added, followed by sealing the shallow well plate, shaking and then centrifuging at 1000 rpm for 1 min, and incubating at room temperature for 5 min; then 5 μL of 2-fold reaction concentration of a 1:1 mixture of STK Substrate 1-biotin (final concentration: 1 μM) and ATP (Sigma A1852) (final concentration: 200 μM) formulated with assay buffer was added, followed by sealing the shallow well plate, shaking and then centrifuging at 1000 rpm for 1 min, and incubating at 37° C. for 2 h, and then 10 μL of a 1:1 mixture of Streptavidin-XL665 (final concentration: 62.5 nM) and STK-antibody-cryptate dissolved with detection buffer was added, followed by sealing the shallow well plate, shaking and then centrifuging at 1000 rpm for 1 min, and incubating at room temperature for 1 h, and thereafter reading the value at the wavelength of 620 nm/665 nm using a microplate reader. The data were analyzed using Prism 9.3 software, and the IC50 value of IRAK4 kinase inhibition was fitted using a four parameter Logistic equation.

Sequence of IRAK4 kinase (Q9NWZ3 whole entry): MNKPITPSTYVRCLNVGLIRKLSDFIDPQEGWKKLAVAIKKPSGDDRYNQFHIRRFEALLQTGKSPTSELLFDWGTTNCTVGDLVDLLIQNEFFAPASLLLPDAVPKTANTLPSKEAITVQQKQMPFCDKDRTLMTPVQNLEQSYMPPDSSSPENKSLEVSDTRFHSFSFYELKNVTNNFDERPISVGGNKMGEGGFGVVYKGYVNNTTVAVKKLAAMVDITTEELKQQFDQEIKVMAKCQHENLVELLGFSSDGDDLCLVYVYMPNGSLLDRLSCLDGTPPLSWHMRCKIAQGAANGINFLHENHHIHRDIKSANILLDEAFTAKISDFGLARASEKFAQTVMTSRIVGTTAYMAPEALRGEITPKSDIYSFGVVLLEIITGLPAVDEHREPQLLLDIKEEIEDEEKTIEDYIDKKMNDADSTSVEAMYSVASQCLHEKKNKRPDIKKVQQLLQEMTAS

IC50 [nM]	SMILES
100 to 1000	FC(F)c1nn(C2CCCCC2)cc1-n1cc(-c2cnn3ccc(N4C[C@H]5C[C@@H]4CO5)nc23)nn1 [Compound 1A, (1R,4R)-5-(3-(1-(1-cyclohexyl-3-(difluoromethyl)-1H-pyrazol-4-yl)-1H-1,2,3-triazol-4-yl]pyrazolo[1,5-a]pyrimidin-5-yl)-2-oxa-5-azabicyclo[2.2.1]heptane]
100 to 1000	N#Cc1cnc2c(-c3cn(-c4cn(C5CCCCC5)nc4C(F)F)nn3)cnn2c1 [Compound 3A, 3-(1-(1-cyclohexyl-3-(difluoromethyl)-1H-pyrazol-4-yl)-1H-1,2,3-triazol-4-yl) pyrazolo[1,5-a]pyrimidine-6-carbonitrile]
< 100	FC(F)c1nn(C2CCCCC2)cc1-n1cc(-c2cnn3ccc(N4CCOCC4)nc23)nn1 [Compound 4A, 4-(3-(1-(1-cyclohexyl-3-(difluoromethyl)-1H-pyrazol-4-yl)-1H-1,2,3-triazol-4-yl)pyrazolo[1,5-a]pyrimidin-5-yl) morpholine]
1000 to 5000	N#Cc1cnc2c(ccn2-c2cn(-c3cn(C4CCCCC4)nc3C(F)F)nn2)c1 [Compound 43A, 1-(1-(1-cyclohexyl-3-(difluoromethyl)-1H-pyrazol-4-yl)-1H-1,2,3-triazol-4-yl]-1H-pyrrolo[2,3-b]pyridine-5-carbonitrile]
1000 to 5000	FC(F)c1nn(C2CCCCC2)cc1-n1cc(-n2ccc3ccc(N4CCOCC4)nc32)nn1 [Compound 45A]
1000 to 5000	Cn1cc(-n2cc(-c3cnn4ccc(N5C[C@H]6C[C@@H]5CO6)nc34)nn2)c(C(F)F)n1 [Compound 46A]
1000 to 5000	FC(F)c1nn(C2CCCCC2)cc1-n1cc(-c2cnn3cccnc23)nn1 [Compound 56A, 3-(1-(1-cyclohexyl-3-(difluoromethyl)-1H-pyrazol-4-yl)-1H-1,2,3-triazol-4-yl]pyrazolo[1,5-a]pyrimidine]
< 100	NC(=O)c1cnn2c(-c3cn(-c4cn(C5CCCCC5)nc4C(F)F)nn3)ccc2c1 [Compound 60A, 7-(1-(1-cyclohexyl-3-(difluoromethyl)-1H-pyrazol-4-yl)-1H-1,2,3-triazol-4-yl) pyrrolo[1,2-b]pyridazine-3-formamide]
100 to 1000	O=C(O)c1cnn2c(-c3cn(-c4cn(C5CCCCC5)nc4C(F)F)nn3)ccc2c1 [Compound 61A, 7-(1-(1-cyclohexyl-3-(difluoromethyl)-1H-pyrazol-4-yl)-1H-1,2,3-triazol-4-yl]pyrrolo[1,2-b]pyridazine-3-carboxylic acid]
1000 to 5000	O=C(c1cnn2c(-c3cn(-c4cn(C5CCCCC5)nc4C(F)F)nn3)ccc2c1)N1CCNCC1 [Compound 64A, (7-(1-(1-cyclohexyl-3-(difluoromethyl)-1H-pyrazol-4-yl)-1H-1,2,3-triazol-4-yl]pyrrolo[1,2-b]pyridazin-3-yl) (piperazin-1-yl) methanone]
100 to 1000	NC(=O)c1cnc2c(ccn2-c2cn(-c3cn(C4CCCCC4)nc3C(F)F)nn2)c1 [Compound 65A, 1-(1-(1-cyclohexyl-3-(difluoromethyl)-1H-pyrazol-4-yl)-1H-1,2,3-triazol-4-yl)-1H-pyrrolo[2,3-b]pyridine-5-formamide]
1000 to 5000	O=C(O)c1cnc2c(ccn2-c2cn(-c3cn(C4CCCCC4)nc3C(F)F)nn2)c1 [Compound 66A, 1-(1-(1-cyclohexyl-3-(difluoromethyl)-1H-pyrazol-4-yl)-1H-1,2,3-triazol-4-yl)-1H-pyrrolo[2,3-b]pyridine-5-carboxylic acid]
> 5000	O=C(NC1CCNC1)c1cnn2c(-c3cn(-c4cn(C5CCCCC5)nc4C(F)F)nn3)ccc2c1 (stereo not shown) [Compound 67A, 7-(1-(1-cyclohexyl-3-(difluoromethyl)-1H-pyrazol-4-yl)-1H-1,2,3-triazol-4-yl]-N-(pyrrolidin-3-yl)pyrrolo[1,2-b]pyridazine-3-formamide]
1000 to 5000	O=C(NC1CNCC1(F)F)c1cnn2c(-c3cn(-c4cn(C5CCCCC5)nc4C(F)F)nn3)ccc2c1 (stereo not shown) [Compound 68A, 7-(1-(1-cyclohexyl-3-(difluoromethyl)-1H-pyrazol-4-yl)-1H-1,2,3-triazol-4-yl]-N-(4,4-difluoropyrrolidin-3-yl)pyrrolo[1,2-b]pyridazine-3-formamide]
100 to 1000	FC(F)c1nn(C2CCNCC2)cc1-n1cc(-c2cnn3ccc(N4CCOCC4)nc23)nn1 [Compound 69A, 4-(3-(1-(3-(difluoromethyl)-1-(piperidin-4-yl)-1H-pyrazol-4-yl)-1,2,3-triazol-4-yl]pyrazolo[1,5-a]pyrimidin-5-yl) morpholine]
< 100	C[C@@H]1C[C@@H](n2cc(-n3cc(-c4cnn5ccc(N6CCOCC6)nc45)nn3)c(C(F)F)n2)CCN1 [Compound 72A]
100 to 1000	C[C@@H]1C[C@H](n2cc(-n3cc(-c4cnn5ccc(N6CCOCC6)nc45)nn3)c(C(F)F)n2)CCN1 [Compound 73A]
100 to 1000	C[C@H]1CC(n2cc(-n3cc(-c4cnn5ccc(N6CCOCC6)nc45)nn3)c(C(F)F)n2)CCN1 (stereo partly drawn) [Compound 79A, 4-(3-(1-(3-(difluoromethyl)-1-((2S)-2-methylpiperidin-4-yl)-1H-pyrazol-4-yl)-1,2,3-triazol-4-yl)pyrazolo[1,5-a]pyrimidin-5-yl) morpholine]
100 to 1000	C[C@@H]1CC(n2cc(-n3cc(-c4cnn5ccc(N6CCOCC6)nc45)nn3)c(C(F)F)n2)CCN1 (stereo partly drawn) [Compound 80A, 4-(3-(3-difluoromethyl)-1-(2R)-2-methylpiperidin-4-yl)-1H-pyrazol-4-yl)-1H-1,2,3-triazol-4-yl)pyrazolo[1,5-a]pyrimidin-5-yl) morpholine hydrochloride]
100 to 1000	C[C@H]1COCCN1c1ccn2ncc(-c3cn(-c4cn(C5CCCCC5)nc4C(F)F)nn3)c2n1 [Compound 82A, (S)-4-(3-(1-(1-cyclohexyl-3-(difluoromethyl)-1H-pyrazol-4-yl)-1H-1,2,3-triazol-4-yl]pyrazolo[1,5-a]pyrimidin-5-yl)-3-methylmorpholine]
100 to 1000	C[C@H]1CN(c2ccn3ncc(-c4cn(-c5cn(C6CCCCC6)nc5C(F)F)nn4)c3n2)CCO1 [Compound 83A, (2S)-4-(3-{1-[1-cyclohexyl-3-(difluoromethyl)-1H-pyrazol-4-yl]-1H-1,2,3-triazol-4-yl}pyrazolo[1,5-a]pyrimidin-5-yl)-2-methylmorpholine]
100 to 1000	NC(=O)c1cnn2c(-c3cn(-c4cn(C5CCNCC5)nc4C(F)F)nn3)ccc2c1 [Compound 84A, 7-(1-(3-(difluoromethyl)-1-(piperidin-4-yl)-1H-pyrazol-4-yl)-1H-1,2,3-triazol-4-yl)pyrrolo[1,2-b]pyridazine-3-formamide]
< 100	CC1(C)CC(n2cc(-n3cc(-c4cnn5ccc(N6CCOCC6)nc45)nn3)c(C(F)F)n2)CCN1 (stereo not shown) [Compound 85A, 4-(3-(1-(3-(difluoromethyl)-1-(2,2-dimethylpiperidin-4-yl)-1H-pyrazol-4-yl)-1,2,3-triazol-4-yl]pyrazolo[1,5-a]pyrimidin-5-yl) morpholine]
100 to 1000	CC1(C)C[C@H](n2cc(-n3cc(-c4cnn5ccc(N6CCOCC6)nc45)nn3)c(C(F)F)n2)CCN1 [Compound 86A, (R)-4-(3-(1-(3-(difluoromethyl)-1-(2,2-dimethylpiperidin-4-yl)-1H-pyrazol-4-yl)-1,2,3-triazol-4-yl]pyrazolo[1,5-a]pyrimidin-5-yl) morpholine]
100 to 1000	CC1(C)C[C@@H](n2cc(-n3cc(-c4cnn5ccc(N6CCOCC6)nc45)nn3)c(C(F)F)n2)CCN1 [Compound 87A, (S)-4-(3-(1-(3-(difluoromethyl)-1-(2,2-dimethylpiperidin-4-yl)-1H-pyrazol-4-yl)-1,2,3-triazol-4-yl]pyrazolo[1,5-a]pyrimidin-5-yl) morpholine]
100 to 1000	CC1(C)COCCN1c1ccn2ncc(-c3cn(-c4cn([C@H]5CC[C@H](CO)CC5)nc4C(F)F)nn3)c2n1 [Compound 88A, ((1r,4r)-4-(3-(difluoromethyl)-4-(4-(5-(3,3-dimethylmorpholinyl)pyrazolo[1,5-a]pyrimidin-3-yl)-1H-1,2,3-triazol-1-yl)-1H-pyrazol-1-yl)cyclohexyl)methanol]
100 to 1000	CC1(C)CN(c2ccn3ncc(-c4cn(-c5cn(C6CCC(CO)CC6)nc5C(F)F)nn4)c3n2)CCO1 (stereo not shown) [Compound 89A, ((1r,4r)-4-(3-(difluoromethyl)-4-(4-(5-(2,2-dimethylmorpholinyl)pyrazolo[1,5-a]pyrimidin-3-yl)-1H-1,2,3-triazol-1-yl)-1H-pyrazol-1-ylcyclohexyl)methanol]
100 to 1000	OC[C@H]1CC[C@H](n2cc(-n3cc(-c4cnn5ccc(N6CC7(COC7)C6)nc45)nn3)c(C(F)F)n2)CC1 [Compound 90A, ((1r, 4r)-4-(4-(4-(5-(2-oxa-6-azaspiro[3.3]heptan-6-yl)pyrazolo[1,5-a]pyrimidin-3-yl)-1H-1,2,3-triazol-1-yl)-3-(difluoromethyl)-1H-pyrazol-1-yl]cyclohexyl)methanol]

Source: patent US20260028337A1, “COMPOUND FOR INHIBITING IRAK4 ACTIVITY AND USE THEREOF” (SHENZHEN ZHONGGE BIOLOGICAL TECHNOLOGY CO., LTD., priority 2022, published 2026)
